Some test systems named below: A498; CAKI-1; HCC 2998; HCT-15; K562; KM12; M14; MCF7; MOLT-4; Malme-3M; NCI-H460; OVCAR-4; SF-268; SK-MEL-2; SN12C; SW-620; T47D; U-251; LOX IMVI; SK-MEL-5.
Holding throughout (experiment): growth of human tumour cells (NCI), 48 h

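Five concentrations, 48 hours, 96-well plates. GI50 marks 50% less growth.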 Activity calls are given as the source filed them. No stated cut-off is given here; in the data, active = GI50 up to about 1.1 µM and inactive = higher.

As for `COc1ccc(/C=N/n2c(C)n[nH]c2=O)c(OC)c1`, the GI50 in the test on A498 is 57.9 µM (inactive); in the test on CAKI-1 it was > 100 µM (inactive); in the test on HCC 2998, > 100 µM (inactive); in the test on HCT-15, more than 100 µM; in the test with K562 it was > 100 µM (inactive); in the test with KM12, > 100 µM (inactive). Moreover, the GI50 in the test on M14 was > 100 µM (inactive); with MCF7 it was > 100 µM (inactive); with MOLT-4 it was 85.1 µM (inactive); in the test with Malme-3M, > 100 µM (inactive); in the test on NCI-H460, > 100 µM (inactive); in the test with OVCAR-4 it was > 100 µM (inactive). Moreover, the GI50 in the test on SF-268, with SK-MEL-2, in the test on SN12C, with SW-620, with T47D and in the test with U-251 was > 100 µM (inactive) each time.
As to `O=c1cc(N2CCOCC2)[nH]c(=O)n1-c1cccc(Cl)c1`, the GI50 in the test on A498 was 32.4 µM (inactive); in the test with CAKI-1, > 100 µM (inactive); in the test on HCC 2998, > 100 µM (inactive); in the test with HCT-15 it was more than 100 µM; in the test with K562, > 100 µM (inactive); in the test with KM12, > 100 µM (inactive). The GI50 in the test with LOX IMVI, in the test with M14, with MCF7, with MOLT-4, in the test with Malme-3M and in the test with NCI-H460 was > 100 µM (inactive) each time. The GI50 in the test with OVCAR-4, with SF-268, in the test with SK-MEL-2, with SN12C, with SW-620 and in the test on T47D was > 100 µM (inactive) throughout. Moreover, in the test with U-251, the GI50 was > 100 µM (inactive).
Regarding `N#Cc1sc2c(c1OC(=O)c1ccc(Cl)cc1)c(=O)n(-c1ccccc1)c(=S)n2-c1ccccc1`, the GI50 with A498 is 21.5 µM (inactive); in the test on CAKI-1, 27.3 µM (inactive); in the test with HCC 2998 it was 21.5 µM (inactive); with HCT-15, 15.8 µM; in the test with K562, 22 µM (inactive); with KM12, 14.9 µM (inactive). Besides, the GI50 was 17.1 µM (inactive) with LOX IMVI; 20.4 µM (inactive) with M14; 23.1 µM (inactive) in the test on MCF7; 42.3 µM (inactive) in the test with MOLT-4; 20.4 µM (inactive) in the test on Malme-3M; 16.4 µM (inactive) with NCI-H460. The GI50 was 23.3 µM (inactive) in the test on OVCAR-4; 23.3 µM (inactive) with SF-268; 17.1 µM (inactive) in the test on SK-MEL-5; 21 µM (inactive) with SN12C; 21.2 µM (inactive) in the test with SW-620; 24.4 µM (inactive) in the test on T47D. The GI50 with U-251 was 11.1 µM (inactive).
Regarding `CC(C)(Oc1ccccc1)C(=O)Sc1c(-c2ccccc2)c(=O)n(-c2ccccc2)c(=S)n1-c1ccccc1`, the GI50 in the test with A498 is 80.9 µM (inactive); with CAKI-1, > 100 µM (inactive); with HCC 2998, 46.8 µM (inactive); with HCT-15 it was 56.6 µM; in the test on K562, 41.4 µM (inactive); in the test with KM12, 31.8 µM (inactive). Besides, the GI50 is 49.5 µM (inactive) in the test with LOX IMVI; 27 µM (inactive) in the test on M14; 46.6 µM (inactive) in the test with MCF7; 36.4 µM (inactive) with MOLT-4; 95.5 µM (inactive) in the test on Malme-3M; 27.3 µM (inactive) in the test on NCI-H460. Moreover, the GI50 in the test with OVCAR-4 is 32.9 µM (inactive); with SF-268, 26.9 µM (inactive); with SN12C, 51.3 µM (inactive); in the test on SW-620 it was 88.3 µM (inactive); in the test on T47D it was 64.3 µM (inactive); in the test on U-251, 21.6 µM (inactive).
For the molecule `Cc1ccc(S(=O)(=O)N/N=C2\C=C[C@]3(CC2)C(=O)N(C)c2ccccc23)cc1`, the GI50 in the test with A498 was > 100 µM (inactive); with CAKI-1, > 100 µM (inactive); with HCC 2998, > 100 µM (inactive); in the test on HCT-15 it was more than 100 µM; in the test with K562, > 100 µM (inactive); in the test with KM12, > 100 µM (inactive). The GI50 in the test on LOX IMVI, in the test on M14, with MCF7, in the test on MOLT-4, in the test with NCI-H460 and with OVCAR-4 was > 100 µM (inactive) throughout. The GI50 with SF-268, in the test on SK-MEL-2, in the test on SK-MEL-5, with SN12C, in the test with SW-620 and with T47D was > 100 µM (inactive) in each case. The GI50 in the test with U-251 was > 100 µM (inactive).
For `CN(C)Cc1cc(Cl)c(O)c(CN(C)C)c1`, the GI50 is > 100 µM (inactive) with A498; > 100 µM (inactive) with CAKI-1; > 100 µM (inactive) with HCC 2998; more than 100 µM in the test on HCT-15; > 100 µM (inactive) in the test with K562; > 100 µM (inactive) in the test on KM12. In addition, the GI50 in the test with LOX IMVI, with M14, with MCF7, in the test on Malme-3M, in the test with NCI-H460 and with OVCAR-4 was > 100 µM (inactive) each time. Further, the GI50 in the test on SF-268, in the test on SK-MEL-2, in the test with SK-MEL-5, with SN12C, in the test on SW-620 and with T47D was > 100 µM (inactive) each time. Moreover, in the test on U-251, the GI50 is > 100 µM (inactive).
Consider `COC(=O)c1ccccc1/C=C1\Cc2ccc3c(c2C1=O)CCCC3`, for which the GI50 is > 100 µM (inactive) in the test on A498; > 100 µM (inactive) in the test on CAKI-1; > 100 µM (inactive) in the test with HCC 2998; more than 100 µM in the test on HCT-15; > 100 µM (inactive) with K562; > 100 µM (inactive) with KM12. Besides, the GI50 with LOX IMVI, with M14, in the test with MCF7, in the test with MOLT-4, in the test with Malme-3M and in the test with NCI-H460 was > 100 µM (inactive) throughout. Further, the GI50 in the test on OVCAR-4, with SF-268, in the test on SK-MEL-2, with SN12C, in the test on SW-620 and in the test with T47D was > 100 µM (inactive) throughout. Further, the GI50 with U-251 is > 100 µM (inactive).
`COc1ccc([C@@]23CCC(=O)C[C@@H]2N(C)CC3)cc1OC`: the GI50 in the test with A498 is > 100 µM (inactive); with CAKI-1, > 100 µM (inactive); with HCC 2998, > 100 µM (inactive); with HCT-15, more than 100 µM; with K562 it was > 100 µM (inactive); in the test with KM12, > 100 µM (inactive). For the same molecule, the GI50 in the test on LOX IMVI, in the test with M14, in the test with MCF7, in the test on MOLT-4, in the test with Malme-3M and in the test with NCI-H460 was > 100 µM (inactive) throughout. The GI50 in the test with OVCAR-4, with SF-268, in the test with SK-MEL-2, in the test with SK-MEL-5, with SW-620 and in the test with T47D was > 100 µM (inactive) in each case. For the same molecule, the GI50 with U-251 is > 100 µM (inactive).
Regarding `Cn1c(-c2cccc([N+](=O)[O-])c2)[n+](C)c2ccccc21`, the GI50 with A498 is > 100 µM (inactive); with CAKI-1 it was > 100 µM (inactive); in the test with HCC 2998 it was > 100 µM (inactive); in the test with HCT-15 it was more than 100 µM; in the test with K562 it was > 100 µM (inactive); in the test on KM12, > 100 µM (inactive). The GI50 with LOX IMVI was > 100 µM (inactive); in the test on M14, > 100 µM (inactive); in the test on MCF7, > 100 µM (inactive); with MOLT-4, > 100 µM (inactive); in the test with Malme-3M it was 89.3 µM (inactive); in the test on NCI-H460, > 100 µM (inactive). Moreover, the GI50 with OVCAR-4 was > 100 µM (inactive); in the test with SF-268, 87.7 µM (inactive); in the test with SK-MEL-2, > 100 µM (inactive); in the test with SK-MEL-5 it was 76.7 µM (inactive); with SW-620, > 100 µM (inactive); in the test with T47D, > 100 µM (inactive). In addition, the GI50 in the test on U-251 was > 100 µM (inactive).
Take `O=c1ccn(CC2(CO)CCC2)c(=O)[nH]1`: the GI50 was > 100 µM (inactive) with A498; > 100 µM (inactive) in the test on CAKI-1; > 100 µM (inactive) with HCC 2998; more than 100 µM in the test on HCT-15; > 100 µM (inactive) in the test on K562; > 100 µM (inactive) with KM12. The GI50 in the test with LOX IMVI, in the test on MCF7, in the test on MOLT-4, in the test with Malme-3M, in the test with NCI-H460 and in the test on OVCAR-4 was > 100 µM (inactive) each time. Moreover, the GI50 in the test with SF-268, with SK-MEL-2, in the test with SK-MEL-5, in the test on SN12C, in the test on SW-620 and in the test on T47D was > 100 µM (inactive) each time. For the same molecule, the GI50 in the test with U-251 is > 100 µM (inactive).
Turning to `O=C(Nc1ccc2[nH]c(C(=O)N3CC(CCl)c4ccc([N+](=O)[O-])cc43)cc2c1)c1cc2ccccc2o1` (configuration not stated), the GI50 with A498 was > 1100 µM (inactive); in the test on CAKI-1, > 1100 µM (inactive); in the test on HCC 2998 it was > 1100 µM (inactive); with HCT-15, more than 1100 µM; in the test with KM12 it was > 1100 µM (inactive); in the test with LOX IMVI, > 1100 µM (inactive). Also, the GI50 in the test on M14 is > 1100 µM (inactive); in the test on MCF7, > 1100 µM (inactive); in the test on MOLT-4, > 1100 µM (inactive); in the test on Malme-3M it was > 1100 µM (inactive); in the test with NCI-H460, 98.4 µM (inactive); in the test on OVCAR-4, > 1100 µM (inactive). Also, the GI50 in the test on SF-268, in the test on SK-MEL-2, with SK-MEL-5, with SN12C, in the test with SW-620 and in the test with T47D was > 1100 µM (inactive) in each case. The GI50 in the test with U-251 was > 1100 µM (inactive).

The record behind these values is ChEMBL document CHEMBL1201862, “PubChem BioAssay data set” (2004).
